Results from patent publication US8173668B1 (Alcon Research, Ltd., priority 2007, dated 2012).

Columns and labels:
ocular normotensive mice = assay: Acute IOP response in mouse eyes; format: in vivo; conditions: 0.1% topical, IOP at 6 and 24 hours; FIG. 7
Experimental: IOP is determined with an applanation pneumatonometer after light corneal anesthesia with 0.1% proparacaine. After baseline IOP measurements were taken, one eye of each of 8 mice was topically dosed with 0.1% FR-190997 in the formulation described in Example 10 or the vehicle of Example 10. The contralateral eye was dosed with vehicle as a control. Subsequent IOP measurements were taken at 6 and 24 hours.

[1] = target: T1, B2-receptors in h-NPE cells (Homo sapiens, UniProt P30411); assay: [Ca2+]i mobilization (FLIPR) in h-NPE cells, agonist mode; format: cell-based; conditions: h-NPE cells, mean ± SEM
T1 construct: B2-receptor proteins in h-TM, h-CM and h-NPE cells; endogenous in cells; host or cells: human trabecular meshwork (h-TM), human ciliary muscle (h-CM) and human non-pigmented ciliary epithelial (h-NPE) cells
T1 sequence (P30411 1-391): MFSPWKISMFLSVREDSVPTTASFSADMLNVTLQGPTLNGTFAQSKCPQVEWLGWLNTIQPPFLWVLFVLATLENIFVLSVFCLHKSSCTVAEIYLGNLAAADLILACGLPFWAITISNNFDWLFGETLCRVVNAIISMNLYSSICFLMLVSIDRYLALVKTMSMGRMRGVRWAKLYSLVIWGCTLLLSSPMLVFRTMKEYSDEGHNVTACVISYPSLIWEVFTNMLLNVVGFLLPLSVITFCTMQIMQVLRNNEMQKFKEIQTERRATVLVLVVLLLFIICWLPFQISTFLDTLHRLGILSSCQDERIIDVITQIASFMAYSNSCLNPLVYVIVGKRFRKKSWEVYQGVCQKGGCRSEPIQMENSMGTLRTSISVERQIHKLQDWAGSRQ
Experimental: On the day of the experiment, one vial of FLIPR Calcium Assay Kit dye is re-suspended in 50 mL of a FLIPR buffer consisting of Hank's Balanced Salt Solution (HBSS), 20 mM HEPES, and 2.5 mM probenecid, pH 7.4. Cells are loaded with the calcium-sensitive dye by addition of an equal volume (50 μL) to each well of the 96-well plate and incubated with dye for 1 h at 23° C. After this time, the test compound plate and cell plate are placed in the FLIPR instrument. At the beginning of an experimental run, a signal test is performed to check the basal fluorescence signal from the dye-loaded cells and the uniformity of the signal across the plate. The basal fluorescence is adjusted between 8000-12000 counts by modifying the exposure time, the camera F-stop, or the laser power. Instrument settings for a typical assay are the following: laser power 0.3-0.6 W, camera F-stop F/2, and exposure time 0.4 sec.
Fluorescence data are collected in real-time at 1.0 sec intervals for the first 60 secs and at 6.0 sec intervals for an additional 120 secs. […] The data are then analyzed using an automated, iterative, sigmoidal curve-fitting computer program to obtain the potency and intrinsic activities of the test agents as previously described (Sharif et al. J. Pharmacol. Exp. Ther. 286: 1094-1102, 1998; Sharif et al. Invest. Ophthalmol. Vis. Sci. 39:2562-2571, 1998; Kelly et al. J. Pharmacol. Exp. Ther. 304: 238-245, 2003). The sources of materials and reagents for such assays can be found in the references cited above.

[2] = test system: ocular hypertensive eyes of ketamine-sedated cynomolgus monkeys; assay: Aqueous humor dynamics (fluorophotometry, tonography) in ketamine-sedated cynomolgus monkeys; format: in vivo; conditions: Treatment Day, Hypertensive Eye OS; one drop of 30 μl 0.01% the day before; mean ± SD
Description: Methods used in this Example were described by Yablonski et al. Invest Ophthalmol V is Sci 1987; 28:2076-2082; Hayashi et al. Exp Eye Res 1989; 48:621-625; Mäepea et al. Exp Eye Res 1989; 49:645-663, and as below:
Twelve female cynomolgus monkeys between the ages of 5 and 8 years were included in the study. All had unilateral laser treatment to the trabecular meshwork of the left eye. Lasering had been done between 2 and 4 years before the study.
Measurements were made on baseline day and after AL-42205-01 (FR-190997) treatment to both eyes. When necessary, sedation was induced by ketamine hydrochloride (HCl), 1 to 5 mg/kg, administered intramuscularly 5 minutes before a measurement to achieve pharmacological restraint. Animals were seated in specially designed chairs for all tonometry and fluorophotometry measurements. Fifteen hours prior to each study day, IOP1 was measured with a pneumatonometer (Classic 30, Xomed, Jacksonville, Fla.) after topical application of proparacaine HCl, 0.13%. Fluorescein (10%) was applied to the cornea by topical drops. Measurements commenced at 8:30-9:00 a.m. the following day with tonometry (IOP2). The fluorescence of the cornea and anterior chamber were measured in duplicate with a scanning fluorophotometer (Fluorotron, OcuMetrics, Palo Alto, Calif.). Scans were taken at 45 minute intervals for a total of 4 sets.
After the fourth set of scans and another IOP measurement (IOP3), an intramuscular injection of acetazolamide (12-20 mg/kg) was administered to reduce IOP by reducing aqueous flow. The dose of acetazolamide for individual monkeys depended on its IOP efficacy in previous studies. Fluorophotometric scans and IOP measurements were repeated 0.75, 1.50 and 2.25 hours after acetazolamide injection. Fluorophotometric outflow facility (Cfl) was calculated as the ratio of the change in aqueous flow to the change in IOP. Uveoscleral outflow (Fus) was calculated by the equation Fus=Fa−Cfl (IOP3−Pev) where Pev is the episcleral venous pressure. A value of 15 mmHg was used. The final measurement was two-minute tonography. The tonography mode of the pneumatonometer was used. Calculations were made using PowerLab and Excel.
Treatment measurements were collected between 6 and 21 days after baseline measurements. The day before the measurement day, conscious IOP was measured (IOP1; 9:00 AM) and one drop of 30 μl of AL-42205-01 0.01% (in matrix vehicle) was applied to both eyes. The drug was used within a week of receipt. It was stored refrigerated before use. Conscious IOP was measured again (IOP2; 5 PM) just before fluorescein was applied as before. The day of fluorophotometry, all measurements were made under sedation as on baseline day.
Values were compared between eyes on each day and baseline values were compared with post-treatment values using Student's two-tailed paired t-test (Table 11). Values are reported as means± standard deviation (SD).

Emax ([1]; read-out: Intrinsic Activity (Emax, % max relative to BK)): 32%
EC50 ([1]; read-out: Potency (EC50), [Ca2+]i mobilization): 384 ± 39 nM
SMILES: CNC(=O)c1ccc(/C=C/C(=O)NCC(=O)N(C)c2ccc(Cl)c(COc3cccc4c(OCc5ccccn5)cc(C)nc34)c2Cl)cc1 [FR-190997]
effect on IOP in ocular normotensive mice (ocular normotensive mice): lower IOP
Cfl, fluorophotometric outflow facility [2]: 0.18 ± 0.16 μl/min/mmHg
Cton, tonographic outflow facility [2]: 0.17 ± 0.11 μl/min/mmHg
Fa, aqueous flow [2]: 1.48 ± 0.53 µL/min
Fufl, uveoscleral outflow calculated with Cfl [2]: 1.23 ± 0.91 µL/min
Futon, uveoscleral outflow calculated with Cton [2]: 1.45 ± 0.45 µL/min
